Reference: ChEMBL document CHEMBL1121647, “Synthesis and antiviral properties of (Z)-5-(2-bromovinyl)-2'-deoxyuridine” (1981)
≈ marks a conversion by molar mass, not a printed value.

System: Vaccinia virus
Test: Minimum inhibitory concentration required to reduce vaccinia virus-induced cytopathogenicity in primary rabbit kidney cell cultures
Assay type: functional
Conditions: Orthopoxvirus vaccinia

Compared with O=c1[nH]c(=O)n([C@H]2C[C@H](O)[C@@H](CO)O2)cc1I [IDOXURIDINE], O=c1[nH]c(=O)n([C@H]2C[C@H](O)[C@@H](CO)O2)cc1/C=C/Br [BRIVUDINE] is 40-fold higher in MIC: 0.1 µg/mL (≈ 0.282 µM) for the first, 4 µg/mL (≈ 12 µM) for the second.

O=c1[nH]c(=O)n([C@H]2C[C@H](O)[C@@H](CO)O2)cc1/C=C\Br was tested, and the MIC was 4 µg/mL (≈ 12 µM).
